From patent publication US6399833B1, “Process for producing aryl vinyl sulfone solution and use thereof” (Sumitomo Chemical Company, Limited, priority 1998, dated 2002)

Columns and labels:
[1] = Stability of phenyl vinyl sulfone/acetonitrile solution, thermostatic bath at 40° C., analysed by gas chromatography; type: physicochemical; settings: 30% acetonitrile solution, stainless steel chip, nitrogen
Description: About 70 ml of a phenyl vinyl sulfone/acetonitrile solution (phenyl vinyl sulfone concentration, 30%) and a chip of stainless steel (20 mm×25 mm×2 mm) (assuming the storage in a stainless steel vessel) were put in a glass sample tube of 100 ml in volume, which was purged with nitrogen gas and then sealed with a tight stopper, followed by stability tests in a thermostatic bath at 40° C. The concentration of phenyl vinyl sulfone in the phenyl vinyl sulfone/acetonitrile solution was analyzed by gas chromatography.

[2] = Stability of phenyl vinyl sulfone solutions in various solvents, thermostatic bath at 40° C., analysed by gas chromatography; type: physicochemical; settings: for Retention in DMF solution: N,N-dimethylformamide solution (30%); for Retention in ethanol solution: ethanol solution (10%); for Retention in MIK solution: methyl isobutyl ketone solution (30%); for Retention in MTBE solution: methyl t-butyl ether solution (10%); for Retention in toluene solution: toluene solution (30%)
Description: About 35 ml of a phenyl vinyl sulfone solution and a chip of stainless steel (20 mm×25 mm×2 mm) (assuming the storage in a stainless steel vessel) were put in a glass sample tube of 50 ml in volume, which was purged with nitrogen gas and then sealed with a tight stopper, followed by stability tests in a thermostatic bath at 40° C. The results of retention when a toluene solution (concentration, 30%), a methyl isobutyl ketone solution (concentration, 30%), and a methyl t-butyl ether solution (concentration, 10%) were used as the phenyl vinyl sulfone solutions are shown in Table 2.
The concentration of phenyl vinyl sulfone in each solution was analyzed by gas chromatography. In the table, MIK refers to methyl isobutyl ketone; and MTBE, methyl t-butyl ether.
Stability tests were carried out in the same manner as described in Reference Example 3, except that an ethanol solution (concentration, 10%) and an N,N-dimethylformamide solution (concentration, 30%) were used as the phenyl vinyl sulfone solutions. In the table, DMF refers to N,N-dimethylformamide.

[3] = Aldrich Material Safety Data; cited from earlier work

SMILES: C=CS(=O)(=O)c1ccccc1 [phenyl vinyl sulfone]
- Retention ([1]; 0 day): 100%
- Retention ([1]; 30 days): 100%
- Retention ([1]; 60 days): 99.9%
- Retention ([1]; 90 days): 99.4%
- Appearance of solution on storage ([2]; DMF solution (30%), with the lapse of storage days): yellow coloring was observed
- Retention in DMF solution ([2]; 0 day): 100%
- Retention in DMF solution ([2]; 15 days): 99.0%
- Retention in ethanol solution ([2]; 0 day): 100%
- Retention in ethanol solution ([2]; 15 days): 83.8%
- Retention in MIK solution ([2]; 0 day): 100%
- Retention in MIK solution ([2]; 15 days): 99.5%
- Retention in MTBE solution ([2]; 0 day): 100%
- Retention in MTBE solution ([2]; 15 days): 100%
- Retention in toluene solution ([2]; 0 day): 100%
- Retention in toluene solution ([2]; 15 days): 100%
- Irritation [3]: exhibit irritation
